Measured values reported in PMC9599717, “The Multicellular Effects of VDAC1 N-Terminal-Derived Peptide” (Biomolecules, 2022).

Experiments:
[1] = test system: HeLa (human cervix adenocarcinoma); assay: Cell death by PI staining and flow cytometry (FACS), HeLa; type: cell-based; conditions: HeLa cells
Experimental: MEC-1 cells were incubated in a serum-free medium with various concentrations of VDAC1-based peptides for 1.5 h at room temperature (RT), collected by centrifugation, washed with phosphate-buffered saline (PBS), and analyzed for cell death. Adherent cancer cells were seeded in culture plates and allowed to adhere overnight in a sterile cell culture incubation chamber maintained at 37 °C and 5% CO2. The next day, media was removed from the plates, and cells were treated with various concentrations of VDAC1-based peptides for the indicated time in serum-free Dulbecco’s Modified Eagle Medium (DMEM) with and without DMSO (final 0.15%) as a control for 6 h at 37 °C and 5% CO2. Cells were trypsinized, centrifuged (1500× g, 5 min), and washed with PBS.
Cell death was analyzed by the propidium iodide (PI) staining, followed by flow cytometry with the iCyt sy3200 Benchtop Cell Sorter/Analyzer and analysis with EC800 v 1.3.7 software (Sony Biotechnology Inc., San Jose, CA, USA). Apoptosis was analyzed by PI and annexin V-FITC staining, which was carried out according to the manufacturer’s instructions with minor modifications. […] Next, cells were washed and PI (6.25 μg/mL), was added immediately before flow cytometry At least 10,000 events were collected, recorded on a dot plot, and analyzed by flow cytometry. […]

G-actin = biological target: T1, G-actin (Oryctolagus cuniculus, UniProt P68135); assay: Pyrenyl-actin G-actin polymerization assay; type: biochemical, rabbit; conditions: 16.7 µM peptide, 2 μM MgATP–G-actin with 10% pyrenyl-labeled actin, 22 °C
T1 construct: Actin was purified from rabbit muscle as CaATP–G-actin complex; from tissue; host or cells: rabbit muscle
Experimental: Actin was purified from rabbit muscle as CaATP–G-actin complex according to the published method using Supredex S200 (Cytiva Lifesciences) size exclusion chromatography in a buffer G composed of 5 mM Tris/HCl, pH 7.8, 0.2 mM CaCl2, 0.2 mM ATP, 0.5 mM dithiothreitol, and 0.01% NaN3. The purified G-actin was fluorescently labeled on Cys-374 with N-(1-pyrene) iodoacetamide (Invitrogene) to a molar ratio of 0.8 to 1.0 pyrene/G-actin, as described previously. CaATP–G-actin was converted into MgATP–G-actin by incubation on ice for 20 min with 20 μM MgCl2 and 0.2 mM EGTA to 10 μM and was used within 1 h.
G-actin polymerization was monitored by following the increase in the fluorescence of 10% pyrenyl-labeled actin. […] Fluorescence measurements were carried out at 22 °C in a Horiba/Jobin Yvon FluoroLog Spectrofluorometer using excitation and emission wavelengths of 365 and 407 nm, respectively. Data were analyzed using GraphPad Prism4.1.681 for Windows software (San Diego, CA, USA).
Figure 5 D-Δ(1-18)N-Ter-Antp altered actin filament organization (A,B) U-87MG cells were cultured and incubated for 24 h with D-Δ(1-18)N-Ter-Antp (10 µM). Cells were stained for actin using Phalloidin-488 and visualized by confocal microscopy (A) and quantified for Phalloidin-488 staining intensity (B). […] (D) Actin interaction with VDAC1 analyzed using the MST method. […]

Substance: 19-FTKGYGFGL-26- RQIKIWFQNRRMKWKK [D-Δ(1-18)N-Ter-Antp]
- Maximal cell death (at the concentration for maximal cell death) ([1]; 6 h): 100%
- IC50 ([1]; 6 h incubation, serum-free medium, PI staining and FACS, read-out: IC50, peptide concentration required for half-maximal cell death activity): 2000 nM
- Effect on G-actin polymerization (G-actin): inhibition of the actin filament assembly
